# From patent publication EP3057950B1, “PHENYL LINKED QUINOLINYL MODULATORS OF ROR-GAMMA-T” (Janssen Pharmaceutica NV, priority 2013, dated 2015)
# Counter-ions that a name gives are not always drawn. Like-named read-outs stand apart in the source and are kept apart here.
# Columns and labels:
# [1] = target: T1, wild type human RORγt ligand binding domain (RORγt LBD) (Homo sapiens, UniProt P51449); assay: RORγt ThermoFluor® Assay (thermal shift, binding affinity); details: pH 7.0, estimated from concentration response curves
# T1 construct: His-tag (N); TurboTEV protease cleavage site (ENLYFQG) (N); made in house; host or cells: E. coli (pHIS1, modified pET expression vector)
# T1 sequence (P51449 269-508 limits assumed): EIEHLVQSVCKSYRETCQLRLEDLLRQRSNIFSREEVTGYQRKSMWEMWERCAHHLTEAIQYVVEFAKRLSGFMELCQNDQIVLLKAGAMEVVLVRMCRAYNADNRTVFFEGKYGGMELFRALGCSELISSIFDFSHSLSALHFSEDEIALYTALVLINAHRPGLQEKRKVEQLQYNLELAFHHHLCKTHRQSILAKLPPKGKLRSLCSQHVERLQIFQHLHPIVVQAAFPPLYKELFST
# Experimental: This approach is applicable to a wide variety of systems, and rigorous in theoretical interpretation through quantitation of equilibrium binding constants (KD).
# The shift in the melting point described as a ΔTm is proportional to the concentration and affinity of the ligand.
# Protein and compound solutions are dispensed into black 384-well polypropylene PCR microplates (Abgene) and overlayed with silicone oil (1 µL, Fluka, type DC 200) to prevent evaporation.
# Bar-coded assay plates are robotically loaded onto a thermostatically controlled PCR-type thermal block and then heated at a typical ramp-rate of 1 °C/min for all experiments. Fluorescence was measured by continuous illumination with UV light (Hamamatsu LC6) supplied via fiber optic and filtered through a band-pass filter (380-400 nm; >6 OD cutoff). Fluorescence emission of the entire 384-well plate was detected by measuring light intensity using a CCD camera (Sensys, Roper Scientific) filtered to detect 500 ± 25 nm, resulting in simultaneous and independent readings of all 384 wells. Images were collected at each temperature, and the sum of the pixel intensity in a given area of the assay plate was recorded versus temperature. Reference wells contained RORγt without compounds, and the assay conditions were as follows: • 0.065 mg/mL RORγt • 60 µM 1,8-ANS • 100 mM Hepes, pH 7.0 • 10 mM NaCl • 2.5 mM GSH • 0.002% Tween-20
# Project compounds were arranged in a pre-dosed mother plate (Greiner Bio-one) wherein compounds are serially diluted in 100% DMSO by 1:2 from a high concentration of 10 mM over 12 columns within a series (column 12 is a reference well containing DMSO, no compound). The compounds were robotically dispensed directly into assay plates (1x = 46 nL) using a Hummingbird capillary liquid handling instrument (Digilab). Following compound dispense, protein and dye in buffer was added to achieve the final assay volume of 3 µL, followed by 1 µL of silicone oil.
# [2] = target: T2, wild type human RORγt LBD (Homo sapiens, UniProt P51449); assay: RORγt Reporter Assay (GAL4-RORγt LBD luciferase in HEK293T cells); assay type: cell-based; details: for IC50: compounds for 24 hours; for inhibition at 6 µM: HEK-293T
# T2 construct: expressed in transfected cells; host or cells: HEK293T
# T2 sequence (P51449 269-508 limits assumed): T1 sequence (P51449 269-508 limits assumed)
# Source text: A reporter assay was used to test functional activity of RORγt modulatory compounds on transcriptional activation driven by the RORγt LBD. Cells used in the assay were co-transfected with two constructs. The first construct, pBIND-RORγt LBD, contained the wild type human RORγt LBD fused to the DNA binding domain of the GAL4 protein. The second construct, pGL4.31 (Promega Cat no. C935A), contained multiple GAL4 responsive DNA elements upstream of firefly luciferase. […] The mutant construct was called pBIND-RORγt-AF2.
# The pBIND vector contains the GAL4 DNA Binding Domain (GAL4 DBD) and the renilla luciferase gene under control of the SV40 promoter. Renilla luciferase expression serves as a control for transfection efficiency and cell viability.
# The reporter assay was performed by transiently transfecting HEK293T cells with 5 µg of pBIND-RORγt LBD or pBIND-RORγt LBD-AF2 and 5 µg pGL4.31 (Promega Cat no. C935A) using Fugene 6 (Invitrogen Cat no. E2691) at a 1:6 ratio of DNA: Fugene 6 in a T-75 flask in which cells were at least 80% confluent. Twenty four hours after bulk transfection, cells were plated into 96-well plates at 50,000 cells/well in phenol-red free DMEM containing 5% Lipid Reduced FCS and Pen/Strep. Six hours after plating, cells were treated with compounds for 24 hours. Media was removed and cells were lysed with 50 µL 1x Glo Lysis Buffer (Promega). Dual Glo Luciferase Reagent (50 µL/well) was then added and firefly luciferase luminescence was read on an Envision after a ten minute incubation. Finally, Stop and Glo reagent (50 µL/well) was added and renilla luciferase luminescence was read on an Envision instrument after a ten minute incubation. To calculate the effect of compounds on RORγt activity, the ratio of firefly to renilla luciferase was determined and plotted against compound concentration. Agonist compounds increase RORγt-driven luciferase expression, and antagonist or inverse agonist compounds decrease luciferase expression.
# [3] = HEK293T cells, read-out: RORγt reporter Assay, IC50
# [4] = read-out: RORγt reporter Assay, % inhibition @ 6 µM, @ 6 µM, HEK293T cells
Kd [1] [nM],"IC50 [2, 3] [µM]","inhibition at 6 µM [2, 4] [%]",SMILES,"inhibition at 6 µM ([2]; read-out: RORγt reporter Assay, % inhibition @ 6 µM) [%]","IC50 ([2]; RORγt reporter Assay, IC50 (µM), HEK293T cells) [µM]"
0.51,0.017,103,"CSc1nc2ccc(C(O)(c3sc(C)nc3C)c3cncn3C)cc2c(SC)c1-c1ccccc1 (stereo not drawn) [Example 42, (2,4-Bis(methylthio)-3-phenylquinolin-6-yl)(2,4-dimethylthiazol-5-yl)(1-methyl-1H-imidazol-5-yl)methanol•TFA]",–,–
3.5,0.039,98,"CSc1nc2ccc(C(O)(c3sc(C)nc3C)c3cncn3C)cc2c(Cl)c1-c1ccccc1 (stereo not drawn) [Example 43, (4-Chloro-2-(methylthio)-3-phenylquinolin-6-yl)(2,4-dimethylthiazol-5-yl)(1-methyl-1H-imidazol-5-yl)methanol•TFA]",–,–
770,0.57,93,"Cn1cncc1C(O)(c1ccc(Cl)cc1)c1ccc2nc(OCC(F)(F)F)c(-c3ccccc3)c(Cl)c2c1 (stereo not drawn) [Example 45, (4-Chlorophenyl)[4-chloro-3-phenyl-2-(2,2,2-trifluoroethoxy)quinolin-6-yl](1-methyl-1H-imidazol-5-yl)methanol•TFA]",–,–
230,0.83,106,"CN(CCO)c1nc2ccc(C(O)(c3ccc(Cl)cc3)c3cncn3C)cc2c(Cl)c1-c1ccccc1 (stereo not drawn) [Example 46, 2-[{4-Chloro-6-[(4-chlorophenyl)(hydroxy)(1-methyl-1H-imidazol-5-yl)methyl]-3-phenylquinolin-2-yl}(methyl)amino]ethanol•TFA]",–,–
8.3,0.04,98,"Cc1nc(C)c(C(O)(c2ccc3nc(C#N)c(-c4ccccc4)c(C#N)c3c2)c2cnnn2C)s1 (stereo not drawn) [Example 47a, 6-((2,4-Dimethylthiazol-5-yl)(hydroxy)(1-methyl-1H-1,2,3-triazol-5-yl)methyl)-3-phenylquinoline-2,4-dicarbonitrile]",–,–
810,0.67,103,"COCCOc1nc2ccc(C(O)(c3ccc(Cl)cc3)c3cncn3C)cc2c(Cl)c1-c1ccccc1 (stereo not drawn) [Example 48, [4-Chloro-2-(2-methoxyethoxy)-3-phenylquinolin-6-yl](4-chlorophenyl)(1-methyl-1H-imidazol-5-yl)methanol]",–,–
90,0.031,99,"COCCN(C)c1nc2ccc(C(O)(c3ccc(Cl)cc3)c3cncn3C)cc2c(Cl)c1-c1ccccc1 (stereo not drawn) [Example 50, {4-Chloro-2-[(2-methoxyethyl)(methyl)amino]-3-phenylquinolin-6-yl}(4-chlorophenyl)(1-methyl-1H-imidazol-5-yl)methanol]",–,–
1100,1.1,96,"CCC(=O)NCCOc1nc2ccc(C(O)(c3ccc(Cl)cc3)c3cncn3C)cc2c(Cl)c1-c1ccccc1 (stereo not drawn) [Example 51, N-[2-({4-Chloro-6-[(4-chlorophenyl)(hydroxy)(1-methyl-1H-imidazol-5-yl)methyl]-3-phenylquinolin-2-yl}oxy)ethyl]propanamide]",–,–
3500,~6,52,"Cn1cncc1C(O)(c1ccc(Cl)cc1)c1ccc2nc(OCCN)c(-c3ccccc3)c(Cl)c2c1 (stereo not drawn) [Example 52, [2-(2-Aminoethoxy)4-chloro-3-phenylquinolin-6-yl](4-chlorophenyl)(1-methyl-1H-imidazol-5-yl)methanol]",–,–
380,0.44,102,"Cn1cncc1C(O)(c1ccc(C(F)(F)F)nc1)c1ccc2nc(OCC(F)(F)F)c(-c3ccccc3)c(Cl)c2c1 (stereo not drawn) [Example 54, [4-Chloro-3-phenyl-2-(2,2,2-trifluoroethoxy)quinolin-6-yl](1-methyl-1H-imidazol-5-yl)[6-(trifluoromethyl)pyridin-3-yl]methanol]",–,–
3300,~3,70,"Cn1cncc1C(O)(c1ccc2nc(Cl)c(-c3ccccc3)c(Cl)c2c1)c1ncccn1 (stereo not drawn) [Example 55, (2,4-Dichloro-3-phenylquinolin-6-yl)(1-methyl-1H-imidazol-5-yl)pyrimidin-2-ylmethanol]",–,–
60,0.023,102,"CON(C)c1nc2ccc(C(O)(c3ccc(C(F)(F)F)nc3)c3cncn3C)cc2c(Cl)c1-c1ccccc1 (stereo not drawn) [Example 56, {4-Chloro-2-[methoxy(methyl)amino]-3-phenylquinolin-6-yl}(1-methyl-1H-imidazol-5-yl)[6-(trifluoromethyl)pyridin-3-yl]methanol]",–,–
580,0.69,100,"CON(C)c1nc2ccc(C(O)(c3ccc(C(F)(F)F)nc3)c3cncn3C)cc2c(N(C)OC)c1-c1ccccc1 (stereo not drawn) [Example 57, {2,4-Bis[methoxy(methyl)amino]-3-phenylquinolin-6-yl}(1-methyl-1H-imidazol-5-yl)[6-(trifluoromethyl)pyridin-3-yl]methanol]",–,–
220,0.15,99,"CON(C)c1nc2ccc(C(O)(c3ccc(Cl)cc3)c3cncn3C)cc2c(Cl)c1-c1ccccc1 (stereo not drawn) [Example 58, {4-Chloro-2-[methoxy(methyl)amino]-3-phenylquinolin-6-yl}(4-chlorophenyl)(1-methyl-1H-imidazol-5-yl)methanol]",–,–
9.3,> 6,26,"COc1nc2c(C)cc(C(O)(c3ccc(C(F)(F)F)nc3)c3cncn3C)cc2c(Cl)c1-c1ccc(OC(F)(F)F)cc1 (stereo not drawn) [Example 63, (4-Chloro-2-methoxy-8-methyl-3-(4-(trifluoromethoxy)phenyl)quinolin-6-yl)(1-methyl-1H-imidazol-5-yl)(6-(trifluoromethyl)pyridin-3-yl)methanol]",–,–
2200,1.4,84,"CN(C)c1nc2ccc(C(c3ccc(Cl)cc3)c3cncn3C)cc2c(Cl)c1-c1ccccc1 (stereo not drawn) [Example 71, 4-Chloro-6-((4-chlorophenyl)(1-methyl-1H-imidazol-5-yl)methyl)-N,N-dimethyl-3-phenylquinolin-2-amine]",–,–
890,0.63,100,"Cn1cncc1C(c1ccc(Cl)cc1)c1ccc2nc(C#N)c(-c3ccccc3)c(Cl)c2c1 (stereo not drawn) [Example 72, 4-Chloro-6-((4-chlorophenyl)(1-methyl-1H-imidazol-5-yl)methyl)-3-phenylquinoline-2-carbonitrile•TFA]",–,–

SMILES,Kd [1] [nM],"IC50 [2, 3] [µM]","inhibition at 6 µM [2, 4] [%]","inhibition at 6 µM ([2]; read-out: RORγt reporter Assay, % inhibition @ 6 µM) [%]","IC50 ([2]; RORγt reporter Assay, IC50 (µM), HEK293T cells) [µM]"
"Cn1cncc1C(O)(c1ccc(Cl)cc1)c1ccc2nc(OCCN3CC3)c(-c3ccccc3)c(Cl)c2c1 (stereo not drawn) [Example 44, [2-(2-Aziridin-1-ylethoxy)-4-chloro-3-phenylquinolin-6-yl](4-chlorophenyl)(1-methyl-1H-imidazol-5-yl)methanol]",5400,–,–,31,> 6
